In ChEMBL document CHEMBL6092167, “Phosphorylation as an Effective Tool to Improve Stability and Reduce Toxicity of Antimicrobial Peptides” (J Med Chem, 2024):
Converted amounts (≈) assume the structure as drawn. The source made the active and inactive calls. The rule behind the calls is not given here. Non-standard residues stand in square brackets, D forms with d. Residues, ends and D or L forms follow the SMILES beside them. Bip = N[C@@H](Cc1ccc(-c2ccccc2)cc1)C(=O)O

Legend:
[1] = tested on: Cell membrane; experiment: Induction of cytoplasmic membrane rupture in Staphylococcus aureus ATCC 25923 assessed as adhesion at 2 times MIC incubated for 30 to 120 mins by SEM analysis; format: subcellular; settings: time 30-120 min
[2] = tested on: Escherichia coli; experiment: Inhibition of biofilm formation in Escherichia coli ATCC 25922 incubated for 24 hrs by crystal violet staining based assay; format: functional, organism-based
[3] = tested on: Klebsiella pneumoniae; experiment: Synergistic antibacterial activity against Klebsiella pneumoniae ATCC 700603 assessed as fractional inhibitory concentration index at 1/4 to 4 times MIC incubated for 18 to 24 hrs in presence of polymyxin B by checkerboard assay; format: functional; settings: time 18-24 hrs
[4] = tested on: Escherichia coli; experiment: Antibacterial activity against Escherichia coli 850 incubated for 18 to 24 hrs by broth microdilution method; format: functional; settings: time 18-24 hrs
[5] = tested on: Pseudomonas aeruginosa; experiment: Antibacterial activity against Pseudomonas aeruginosa 119 incubated for 18 to 24 hrs by broth microdilution method; format: functional; settings: time 18-24 hrs
[6] = Stability in Kunming mouse serum assessed as half life measured upto 24 hrs by RP-HPLC method; format: ADME, cell-free
[7] = tested on: Escherichia coli; experiment: Antibiofilm activity against Escherichia coli ATCC 25922 assessed as eradication of preformed biofilms at 2 to 4 times MIC incubated for 24 hrs by crystal violet staining based assay; format: functional, organism-based
[8] = tested on: Klebsiella pneumoniae; experiment: Antibiofilm activity against Klebsiella pneumoniae ATCC 700603 assessed as eradication of preformed biofilms at 2 to 4 times MIC incubated for 24 hrs by crystal violet staining based assay; format: functional, organism-based
[9] = tested on: Klebsiella pneumoniae; experiment: Additive antibacterial activity against Klebsiella pneumoniae ATCC 700603 assessed as fractional inhibitory concentration index at 1/4 to 4 times MIC incubated for 18 to 24 hrs in presence of kanamycin by checkerboard assay; format: functional; settings: time 18-24 hrs
[10] = tested on: Staphylococcus aureus; experiment: Antibacterial activity against Staphylococcus aureus 794 incubated for 18 to 24 hrs by broth microdilution method; format: functional; settings: time 18-24 hrs
[11] = tested on: Pseudomonas aeruginosa; experiment: Antibiofilm activity against Pseudomonas aeruginosa ATCC 27853 assessed as eradication of preformed biofilms incubated for 24 hrs by crystal violet staining based assay; format: functional, organism-based
[12] = Hemolytic activity in mouse erythrocyte incubated for 1 hr by microplate reader assay; format: toxicity, cell-based
[13] = tested on: Escherichia coli; experiment: Antibiofilm activity against Escherichia coli ATCC 25922 assessed as eradication of preformed biofilms incubated for 24 hrs by crystal violet staining based assay; format: functional, organism-based
[14] = tested on: Klebsiella pneumoniae; experiment: Durg resistance development in Klebsiella pneumoniae ATCC 700603 measured after 20 passage; format: functional, organism-based
[15] = tested on: Klebsiella pneumoniae; experiment: Additive antibacterial activity against Klebsiella pneumoniae ATCC 700603 assessed as fractional inhibitory concentration index at 1/4 to 4 times MIC incubated for 18 to 24 hrs in presence of rifampicin by checkerboard assay; format: functional; settings: time 18-24 hrs
[16] = tested on: Staphylococcus aureus; experiment: Antibacterial activity against methicillin resistant Staphylococcus aureus 48 incubated for 18 to 24 hrs by broth microdilution method; format: functional; settings: time 18-24 hrs
[17] = tested on: Cell membrane; experiment: Induction of cell membrane disruption in Pseudomonas aeruginosa ATCC 27853 at 2 times MIC incubated for 2 hrs by SEM analysis; format: subcellular
[18] = tested on: Cell membrane; experiment: Induction of cytoplasmic membrane rupture in Pseudomonas aeruginosa ATCC 27853 assessed as blistering at 2 times MIC incubated for 30 to 120 mins by SEM analysis; format: subcellular; settings: time 30-120 min
[19] = tested on: Acinetobacter baumannii; experiment: Antibacterial activity against Acinetobacter baumannii ATCC 19606 incubated for 18 to 24 hrs by broth microdilution method; format: functional; settings: time 18-24 hrs
[20] = tested on: Klebsiella pneumoniae; experiment: Antibacterial activity against rifampicin resistant Klebsiella pneumoniae; format: functional
[21] = tested on: Klebsiella pneumoniae; experiment: Antibiofilm activity against Klebsiella pneumoniae ATCC 700603 assessed as eradication of preformed biofilms incubated for 24 hrs by crystal violet staining based assay; format: functional, organism-based
[22] = tested on: Cell membrane; experiment: Induction of cytoplasmic membrane rupture in Pseudomonas aeruginosa ATCC 27853 assessed as leakage of cellular content at 2 times MIC incubated for 30 to 120 mins by SEM analysis; format: subcellular; settings: time 30-120 min
[23] = tested on: Klebsiella pneumoniae; experiment: Antibacterial activity against Klebsiella pneumoniae ATCC 700603 incubated for 18 to 24 hrs by broth microdilution method; format: functional; settings: time 18-24 hrs
[24] = tested on: Cell membrane; experiment: Induction of membrane damage in Pseudomonas aeruginosa ATCC 27853 assessed as change in membrane shape at 2 times MIC incubated for 30 to 120 mins by SEM analysis; format: subcellular; settings: time 30-120 min
[25] = tested on: Klebsiella pneumoniae; experiment: Inhibition of kanamycin resistance in Klebsiella pneumoniae ATCC 700603 at 1:1 compound: kanamycin molar ratio measured after 20 generation; format: functional, organism-based
[26] = tested on: Cell membrane; experiment: Induction of cytoplasmic membrane rupture in Staphylococcus aureus ATCC 25923 assessed as content leakage at 2 times MIC incubated for 30 to 120 mins by SEM analysis; format: subcellular; settings: time 30-120 min
[27] = tested on: Bacillus subtilis; experiment: Antibacterial activity against Bacillus subtilis ATCC 23857 incubated for 18 to 24 hrs by broth microdilution method; format: functional; settings: time 18-24 hrs
[28] = Toxicity in ip dosed BALB/c mouse measured after 14 days; format: organism-based; settings: in vivo, time 14 day
[29] = tested on: Staphylococcus aureus; experiment: Antibacterial activity against methicillin resistant Staphylococcus aureus ATCC 33591 incubated for 18 to 24 hrs by broth microdilution method; format: functional; settings: time 18-24 hrs
[30] = tested on: Pseudomonas aeruginosa; experiment: Antibiofilm activity against Pseudomonas aeruginosa ATCC 27853 assessed as eradication of preformed biofilms at 4 times MIC incubated for 24 hrs by crystal violet staining based assay; format: functional, organism-based
[31] = tested on: Cell membrane; experiment: Induction of inner membrane permeabilization in Escherichia coli ML-35 assessed as increase in […] intensity by ONPG dye based microplate reader assay; format: subcellular
[32] = tested on: Cell membrane; experiment: Induction of cytoplasmic membrane rupture in Pseudomonas aeruginosa ATCC 27853 assessed as wrinkling at 2 times MIC incubated for 30 to 120 mins by SEM analysis; format: subcellular; settings: time 30-120 min
[33] = tested on: Staphylococcus aureus; experiment: Antibacterial activity against Staphylococcus aureus ATCC 25923 incubated for 18 to 24 hrs by broth microdilution method; format: functional; settings: time 18-24 hrs
[34] = target: Chymotrypsin (Homo sapiens, UniProt Q99895+P17538+P40313+Q6GPI1); experiment: Stability of compound assessed as chymotrypsin (unknown origin) mediated compound degradation; format: ADME, protein assay
[35] = target: Trypsin (Homo sapiens, UniProt P07477+P07478+P35030); experiment: Stability of compound assessed as trypsin (unknown origin) mediated compound degradation; format: ADME, protein assay
[36] = tested on: Cell membrane; experiment: Induction of cytoplasmic membrane rupture in Pseudomonas aeruginosa ATCC 27853 assessed as adhesion at 2 times MIC incubated for 30 to 120 mins by SEM analysis; format: subcellular; settings: time 30-120 min
[37] = tested on: Klebsiella pneumoniae; experiment: Additive antibacterial activity against Klebsiella pneumoniae ATCC 700603 assessed as fractional inhibitory concentration index at 1/4 to 4 times MIC incubated for 18 to 24 hrs in presence of ciprofloxacin by checkerboard assay; format: functional; settings: time 18-24 hrs
[38] = tested on: Staphylococcus aureus; experiment: Inhibition of biofilm formation in Staphylococcus aureus ATCC 25923 at 1 time MIC incubated for 24 hrs by crystal violet staining based assay; format: functional, organism-based
[39] = tested on: Klebsiella pneumoniae; experiment: Inhibition of rifampicin resistance in Klebsiella pneumoniae ATCC 700603 at 1:1 compound: rifampicin molar ratio measured after 20 generation; format: functional, organism-based
[40] = Cytotoxicity against HEK293T cells incubated for 1 hr by fluorescence based microplate reader assay; format: toxicity, cell-based, HEK-293T; settings: human
[41] = tested on: Staphylococcus aureus; experiment: Antibiofilm activity against Staphylococcus aureus ATCC 25923 assessed as eradication of preformed biofilms incubated for 24 hrs by crystal violet staining based assay; format: functional, organism-based
[42] = tested on: Staphylococcus aureus; experiment: Antibiofilm activity against Staphylococcus aureus ATCC 25923 assessed as eradication of preformed biofilms at 2 to 4 times MIC incubated for 24 hrs by crystal violet staining based assay; format: functional, organism-based
[43] = tested on: Klebsiella pneumoniae; experiment: Antibacterial activity against kanamycin resistant Klebsiella pneumoniae; format: functional

CC(C)C[C@H](NC(=O)[C@H](CC(C)C)NC(=O)[C@H](Cc1ccc(O)cc1)NC(=O)[C@H](CCCCN)NC(=O)[C@H](CC(C)C)NC(=O)[C@H](CCCNC(=N)N)NC(=O)[C@H](CCCCN)NC(=O)[C@H](Cc1ccc(-c2ccccc2)cc1)NC(=O)[C@H](CC(C)C)NC(=O)CN)C(N)=O (H-GL[Bip]KRLKYLL-NH2)
Activity [1]: Active | inhibition [2]: Dose-dependent-effect; Inhibition Comparable To Polymyxin B | fractional inhibitory concentration index (FICI) [3]: 0.5 | MIC [4]: 8 µM (≈ 10.6 µg/mL) | MIC [5]: 8 µM (≈ 10.6 µg/mL) | half-life [6]: 1.36 h | Activity [7]: Active | Activity [8]: Active | fractional inhibitory concentration index (FICI) [9]: 0.563 | MIC [10]: 8 µM (≈ 10.6 µg/mL) | Activity [11]: Dose-dependent-effect; Superior Activity Compared To Polymyxin B And Vancomycin | MHC [12]: 27.38 µM | Activity [13]: Dose-dependent-effect; Superior Activity Compared To Polymyxin B And Vancomycin | Activity [14]: inactive | fractional inhibitory concentration index (FICI) [15]: 0.563 | MIC [16]: 8 µM (≈ 10.6 µg/mL) | Activity [17]: Active; More Potent Than Polymyxin B And Vancomycin | Activity [18]: Active | MIC [19]: 8 µM (≈ 10.6 µg/mL) | MIC [20]: 8 µM (≈ 10.6 µg/mL) | Activity [21]: Dose-dependent-effect; Superior Activity Compared To Polymyxin B And Vancomycin | Activity [22]: Active | MIC [23]: 8 µM (≈ 10.6 µg/mL) | Activity [24]: Active | inhibition [25]: Active | Activity [26]: Active | MIC [27]: 4 µM (≈ 5.3 µg/mL) | LD50 at 336 h [28]: 66.7 mg/kg | MIC [29]: 8 µM (≈ 10.6 µg/mL) | Activity [30]: Active | Activity [31]: Time-dependent-effect; More Potent Than 1% Triton X-100 And Polymyxin B | Activity [32]: Active | MIC [33]: 8 µM (≈ 10.6 µg/mL) | Stability [34]: Stable | Stability [35]: Stable | Activity [36]: Active | fractional inhibitory concentration index (FICI) [37]: 0.75 | inhibition [38]: Active | inhibition [39]: Active | CC50 at 1 h [40]: 50.9 µM | Activity [41]: Dose-dependent-effect; Superior Activity Compared To Polymyxin B And Vancomycin | Activity [42]: Active | MIC [43]: 8 µM (≈ 10.6 µg/mL)
